Experimental data published in US10143681B2, “Factor XIa inhibitors” (MERCK SHARP & DOHME CORP., priority 2016, dated 2018).
pIC50: −log10 of the molar value.

biological target: human Factor XIa (Homo sapiens (Human), UniProt P03951); assay: Factor XIa Assay; type: biochemical; details: @ 1000 nM compound; read-out: FXIa % Inh. @ 1000 nM
Experimental: The effectiveness of a compound of the present invention as an inhibitor of Coagulation Factor XIa can be determined using a relevant purified serine protease, and an appropriate synthetic substrate. The rate of hydrolysis of the chromogenic or fluorogenic substrate by the relevant serine protease was measured both in the absence and presence of compounds of the present invention. Assays were conducted at room temperature or at 37° C. […] A decrease in the rate of fluorescence change in the presence of inhibitor is indicative of enzyme inhibition. Such methods are known to one skilled in the art. The results of this assay are expressed as the half-maximal inhibitory concentrations (IC50), or the inhibitory constant, Ki.
Compounds were pre-incubated for 30 minutes at 25° C. with human (0.04 nM) Factor XIa in 50 mM HEPES buffer with 150 mM sodium chloride, 5 mM calcium chloride, 0.1% PEG 8000, pH 7.4. Factor XIa enzymatic activity was determined by addition of the substrate glycine-proline-arginine-7-amido-4-trifluoromethylcoumarin (GPR-AFC) and measurement of the fluorescence at 400/505 nm after a 60 minute incubation at 25° C. The % inhibition for each data point was calculated from the data and analyzed using the log (inhibitor) vs. response four parameters equation to determine the half-maximal inhibitory concentrations (IC50). The IC50 were converted to equilibrium inhibitory constants (Ki) using the Cheng-Prusoff equation.

Sequence of human Factor XIa (P03951 388-625): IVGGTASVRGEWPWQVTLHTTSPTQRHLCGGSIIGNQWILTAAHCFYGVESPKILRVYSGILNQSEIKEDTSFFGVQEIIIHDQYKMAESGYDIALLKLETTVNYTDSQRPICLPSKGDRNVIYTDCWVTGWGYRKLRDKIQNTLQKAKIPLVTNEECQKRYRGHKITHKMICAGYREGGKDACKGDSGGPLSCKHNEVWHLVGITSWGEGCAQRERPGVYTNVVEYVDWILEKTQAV
Sequence of human Factor XIa (P03951 19-387 partner): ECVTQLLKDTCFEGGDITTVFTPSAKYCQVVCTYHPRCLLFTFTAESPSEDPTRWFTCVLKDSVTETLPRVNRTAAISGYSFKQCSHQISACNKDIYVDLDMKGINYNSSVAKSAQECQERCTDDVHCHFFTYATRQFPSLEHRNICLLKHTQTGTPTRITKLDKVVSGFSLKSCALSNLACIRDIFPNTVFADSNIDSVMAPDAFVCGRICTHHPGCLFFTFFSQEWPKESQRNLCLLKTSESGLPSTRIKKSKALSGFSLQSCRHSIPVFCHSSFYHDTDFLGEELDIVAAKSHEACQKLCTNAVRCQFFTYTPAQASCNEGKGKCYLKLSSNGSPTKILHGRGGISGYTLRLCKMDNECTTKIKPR

| SMILES | inhibition at 1 µM [%] |
| --- | --- |
| CC1CCC1CC(C(=O)Nc1ccc(C(=O)O)cc1)c1ccc(-c2c(OC(F)F)ccc(Cl)c2F)c[n+]1[O-] (single isomer, unassigned) [Example 104, 2-(1-((4-carboxyphenyl)amino)-3-(2-methylcyclobutyl)-1-oxopropan-2-yl)-5-(3-chloro-6-(difluoromethoxy)-2-fluorophenyl)pyridine 1-oxide] | 37 |
| O=C(O)c1ccc(NC(=O)C(CC2CC2C(F)(F)F)c2ccc(-c3c(OC(F)F)ccc(Cl)c3F)c[n+]2[O-])cc1 (single isomer, unassigned) [Example 110, 2-(1-((4-carboxyphenyl)amino)-1-oxo-3-(2-(trifluoromethyl)cyclopropyl)propan-2-yl)-5-(3-chloro-6-(difluoromethoxy)-2-fluorophenyl)pyridine 1-oxide] | 29 |
| C[C@]1(O)CC[C@@H](CC(C(=O)Nc2ccc(C(=O)O)cc2)c2ccc(-c3c(OC(F)F)ccc(Cl)c3F)c[n+]2[O-])CC1 (single isomer, unassigned) [Example 41, 2-(1-((4-carboxyphenyl)amino)-3-((1s,4s)-4-hydroxy-4-methylcyclohexyl)-1-oxopropan-2-yl)-5-(3-chloro-6-(difluoromethoxy)-2-fluorophenyl)pyridine 1-oxide] | 49 |
| O=C(O)c1ccc(NC(=O)[C@H](CC2CC2)c2ccc(-c3c(OC(F)F)ccc(Cl)c3F)c[n+]2[O-])cc1 (single isomer, unassigned) [Example 1] | 47 |
| CCOC(=O)c1ccc(NC(=O)C(CC2CC2)c2ccc(-c3c(C(F)F)ccc(Cl)c3F)c[n+]2[O-])cc1 (single isomer, unassigned) [Example 115, 5-(3-chloro-6-(difluoromethyl)-2-fluorophenyl)-2-(3-cyclopropyl-1-((4-(ethoxycarbonyl)phenyl)amino)-1-oxopropan-2-yl)pyridine 1-oxide] | 0 |
| COC(=O)c1ccc(NC(=O)C(CC2CCC2)c2ccc(-c3c(C(F)F)ccc(Cl)c3F)c[n+]2[O-])cc1 (single isomer, unassigned) [Example 20, (S)- or (R)-methyl 4-[(2-{5-[3-chloro-6-(difluoromethyl)-2-fluorophenyl]-1-oxidopyridin-2-yl}-3-cyclobutylpropanoyl)amino]benzoate] | 13 |

same assay, conditions: human Factor XIa 0.04 nM, 30 min pre-incubation at 25° C., substrate GPR-AFC; read-out: FXIa IC50

| SMILES | pIC50 |
| --- | --- |
| O=C(O)c1ccc(NC(=O)C(CC2CC(F)C2)c2ccc(-c3c(C(F)F)ccc(Cl)c3F)c[n+]2[O-])cc1 (single isomer, unassigned) [Example 80, 2-(1-((4-carboxyphenyl)amino)-3-(3-fluorocyclobutyl)-1-oxopropan-2-yl)-5-(3-chloro-6-(difluoromethyl)-2-fluorophenyl)pyridine 1-oxide] | 6.31 |
| CC1CCC1CC(C(=O)Nc1ccc(C(=O)O)cc1)c1ccc(-c2c(OC(F)F)ccc(Cl)c2F)c[n+]1[O-] (single isomer, unassigned) [Example 104, 2-(1-((4-carboxyphenyl)amino)-3-(2-methylcyclobutyl)-1-oxopropan-2-yl)-5-(3-chloro-6-(difluoromethoxy)-2-fluorophenyl)pyridine 1-oxide] | 6.00 |
| CC1CC1C[C@H](C(=O)Nc1ccc(C(=O)O)cc1)c1ccc(-c2c(OC(F)F)ccc(Cl)c2F)c[n+]1[O-] (single isomer, unassigned) [Example 53] | 6.81 |
| CC(C1CC1)C(C(=O)Nc1ccc(C(=O)O)cc1)c1ccc(-c2c(OC(F)F)ccc(Cl)c2F)c[n+]1[O-] (single isomer, unassigned) [Example 60, 2-(1-((4-carboxyphenyl)amino)-3-cyclopropyl-1-oxobutan-2-yl)-5-(3-chloro-6-(difluoromethoxy)-2-fluorophenyl)pyridine 1-oxide] | 7.21 |
| C[C@]1(O)CC[C@H](CC(C(=O)Nc2ccc(C(=O)O)cc2)c2ccc(-c3c(C(F)F)ccc(Cl)c3F)c[n+]2[O-])CC1 (single isomer, unassigned) [Example 46, 2-(1-((4-carboxyphenyl)amino)-3-((1r,4r)-4-hydroxy-4-methylcyclohexyl)-1-oxopropan-2-yl)-5-(3-chloro-6-(difluoromethyl)-2-fluorophenyl)pyridine 1-oxide] | 6.89 |
| O=C(O)c1ccc(NC(=O)C(CC2CC2)c2ccc(-c3c(C(F)F)ccc(Cl)c3F)c[n+]2[O-])cc1F (single isomer, unassigned) [Example 117, 2-(1-((4-carboxy-3-fluorophenyl)amino)-3-cyclopropyl-1-oxopropan-2-yl)-5-(3-chloro-6-(difluoromethyl)-2-fluorophenyl)pyridine 1-oxide] | 7.23 |
| Cc1cc(NC(=O)C(CC2CC2)c2ccc(-c3c(C(F)F)ccc(Cl)c3F)c[n+]2[O-])ccc1C(=O)O (single isomer, unassigned) [Example 121, 2-(1-((4-carboxy-3-methylphenyl)amino)-3-cyclopropyl-1-oxopropan-2-yl)-5-(3-chloro-6-(difluoromethyl)-2-fluorophenyl)pyridine 1-oxide] | 6.21 |
| O=C(O)c1ccc(NC(=O)C(C[C@H]2CC[C@H](O)CC2)c2ccc(-c3c(C(F)F)ccc(Cl)c3F)c[n+]2[O-])cc1 (single isomer, unassigned) [Example 36, (S)- or (R)-2-(1-((4-carboxyphenyl)amino)-3-((1r,4r)-4-hydroxycyclohexyl)-1-oxopropan-2-yl)-5-(3-chloro-6-(difluoromethyl)-2-fluorophenyl)pyridine 1-oxide] | 7.59 |
| C[C@]1(O)CC[C@@H](CC(C(=O)Nc2ccc(C(=O)O)cc2)c2ccc(-c3c(OC(F)F)ccc(Cl)c3F)c[n+]2[O-])CC1 (single isomer, unassigned) [Example 41, 2-(1-((4-carboxyphenyl)amino)-3-((1s,4s)-4-hydroxy-4-methylcyclohexyl)-1-oxopropan-2-yl)-5-(3-chloro-6-(difluoromethoxy)-2-fluorophenyl)pyridine 1-oxide] | < 6.00 |
| CC1(C)CC1CC(C(=O)Nc1ccc(C(=O)O)cc1)c1ccc(-c2c(OC(F)F)ccc(Cl)c2F)c[n+]1[O-] (single isomer, unassigned) [Example 111, 2-(1-((4-carboxyphenyl)amino)-3-(2,2-dimethylcyclopropyl)-1-oxopropan-2-yl)-5-(3-chloro-6-(difluoromethoxy)-2-fluorophenyl)pyridine 1-oxide] | 6.80 |
| C[C@]1(O)CC[C@H](CC(C(=O)Nc2ccc(C(=O)O)cc2)c2ccc(-c3c(OC(F)F)ccc(Cl)c3F)c[n+]2[O-])CC1 (single isomer, unassigned) [Example 42, 2-(1-((4-carboxyphenyl)amino)-3-((1r,4r)-4-hydroxy-4-methylcyclohexyl)-1-oxopropan-2-yl)-5-(3-chloro-6-(difluoromethoxy)-2-fluorophenyl)pyridine 1-oxide] | 6.64 |
| COC(=O)c1ccc(NC(=O)C(CC2CCC2)c2ccc(-c3c(C(F)F)ccc(Cl)c3F)c[n+]2[O-])cc1 (single isomer, unassigned) [Example 21, (R)- or (S)-methyl 4-[(2-{5-[3-chloro-6-(difluoromethyl)-2-fluorophenyl]-1-oxidopyridin-2-yl}-3-cyclobutylpropanoyl)amino]benzoate] | 7.08 |
| O=C(O)c1ccc(NC(=O)[C@@H](CC2CC2)c2ccc(-c3c(C(F)F)ccc(Cl)c3F)c[n+]2[O-])cc1 (mixture of isomers) [Example 22, (S)- and (R)-2-(1-((4-carboxyphenyl)amino)-3-cyclopropyl-1-oxopropan-2-yl)-5-(3-chloro-6-(difluoromethyl)-2-fluorophenyl)pyridine 1-oxide] | 6.62 |
| COC(=O)c1ccc(NC(=O)C(CC2CCC2)c2ccc(-c3c(C(F)F)ccc(Cl)c3F)c[n+]2[O-])cc1 (single isomer, unassigned) [Example 20, (S)- or (R)-methyl 4-[(2-{5-[3-chloro-6-(difluoromethyl)-2-fluorophenyl]-1-oxidopyridin-2-yl}-3-cyclobutylpropanoyl)amino]benzoate] | < 6.00 |
| CC(C1CC1)C(C(=O)Nc1ccc(C(=O)O)cc1)c1ccc(-c2c(OC(F)F)ccc(Cl)c2F)c[n+]1[O-] (single isomer, unassigned) [Example 58, 2-(1-((4-carboxyphenyl)amino)-3-cyclopropyl-1-oxobutan-2-yl)-5-(3-chloro-6-(difluoromethoxy)-2-fluorophenyl)pyridine 1-oxide] | 6.48 |
| O=C(O)c1ccc(NC(=O)C(CC2CC2C(F)(F)F)c2ccc(-c3c(C(F)F)ccc(Cl)c3F)c[n+]2[O-])cc1 (single isomer, unassigned) [Example 86, 2-(1-((4-carboxyphenyl)amino)-1-oxo-3-(2-(trifluoromethyl)cyclopropyl)propan-2-yl)-5-(3-chloro-6-(difluoromethyl)-2-fluorophenyl)pyridine 1-oxide] | 7.03 |
| CCOC(=O)c1ccc(NC(=O)[C@H](CC2CCC2)c2ccc(-c3c(C(F)F)ccc(Cl)c3F)c[n+]2[O-])cc1 [Example 5, (R)-5-(3-chloro-6-(difluoromethyl)-2-fluorophenyl)-2-(3-cyclobutyl-1-((4-(ethoxycarbonyl)phenyl)amino)-1-oxopropan-2-yl)pyridine 1-oxide] | 6.78 |

system: Human plasma (intrinsic coagulation cascade); assay: Activated Partial Thromboplastin Time (aPTT) Assay; details: concentration that causes a 50% (1.5×) increase of clot time over vehicle
Experimental: Activated partial thromboplastin time (aPTT) is a clotting test that measures the intrinsic coagulation cascade. The test is performed in sodium citrated plasma. Human plasma is made by collecting blood from healthy donors of both genders into Na citrate tubes (Sarstedt coagulation 9NC/10 ml). Blood is centrifuged at 1500×g and the plasma is collected. aPTT is checked on each individual donor and those within the normal range (28-40 seconds) are pooled, aliquoted, and stored at −80 C. Test samples are prepared by spiking inhibitors or vehicle into plasma. These spiked samples are then run on a coagulation analyzer (STA-R Evolution, Stago Diagnostica). In general, the analyzer performs the following steps: Factor XII is activated by addition of ellagic acid (Pacific Hemostasis), and then time to clot is measured after re-calcification of the sample. Inhibition of FXI will cause aPTT clot time to be prolonged. The data is expressed as percent increase over vehicle control clot time and the concentration that causes a 50% (1.5×) percent increase of clot time are reported.

| SMILES | aPTT (1.5x) [µM] |
| --- | --- |
| O=C(O)c1ccc(NC(=O)C(CC2CC2F)c2ccc(-c3c(C(F)F)ccc(Cl)c3F)c[n+]2[O-])cc1 (single isomer, unassigned) [Example 92, 2-(1-((4-carboxyphenyl)amino)-3-(2-fluorocyclopropyl)-1-oxopropan-2-yl)-5-(3-chloro-6-(difluoromethyl)-2-fluorophenyl)pyridine 1-oxide] | 100 |
